Columns and labels:
[1] = test system: λ DNA; conditions: for staining / visualization of λ DNA molecules: λ DNA (48.5 kbp) tethered, 1×TE flow 100 μL/minute, 70 μM dye solution mixed 1:1, 20-fold diluted, FIGS. 2a-2c
Procedure: An inverted microscope (Olympus IX70, Tokyo, Japan) with 60× Olympus UPlanSApo oil immersion objectives illuminated with an LED light source (SOLA SM II light engine, Lumencor, Beaverton, Oreg., USA) was used. The light was passed through corresponding filter sets (Semrock, Rochester, N.Y., USA) to set the excitation and emission wavelengths. A maximum light intensity of 140 mW/cm^2 was measured. Fluorescence microscopic images were taken with an electron-multiplying charge-coupled device digital camera (Evolve EMCCD, Roper Scientific, Tucson, Ariz., USA) and stored in a 16-bit TIFF format using the software Micro-manager. For image processing and analysis, ImageJ software with Java plug-ins and python programs developed by the present inventors were utilized.
First, λ DNA (NCBI: NC_001416.1) was diluted to a concentration of 5 ng/μL (0.16 nM; base pair 7.76 μM) in 1×TE (10 mM Tris, 1 mM EDTA, pH 8.0) and mixed at a volume ratio of 1:1 with 70 μM of the Preparation Example solution. Next, the mixture was incubated at room temperature for 15 min and 20-fold diluted with 4% […] (β-ME) in 1×TE.
Separately, a flow chamber (5×10×0.1 mm (L×W×H)) was prepared by placing an acrylic support on an acid-cleaned cover slip, with the walls formed by double-sided tape, An NE-1000 syringe pump (New Era Pump Systems Inc., Wantagh, N.Y.) was used to control the buffer.
Thereafter, 40 μg/mL biotinylated bovine serum albumin (BSA) was injected and incubated at room temperature for 10 min, after which a dilution of 20 μg/mL Neutravidin in T50 solution (10 mM Tris, […], pH 8.0) was injected to the flow chamber and incubated at room temperature for 10 min.
Then, 1 μM of λ DNA overhang oligo (5′-p-[…]-Triethyleneglycol-biotin-3′) was loaded into the flow chamber and maintained at room temperature for 10 minutes. λ DNA, 200 U of T4 DNA ligase, and reaction buffer were added and incubated at room temperature for 30 minutes.
Stained DNA molecules were visualized under a continuous flow of 1×TE (100 μl/minute).

[2] = test system: polytene chromosomes from the Drosophila melanogaster salivary gland; conditions: 2.5 μM in 4% β-ME; tangled and spread polytene chromosomes; FIG. 5a
Excerpt: For comparison with DAPI, which is conventionally used to visualize polytene chromosomes on a fluorescence microscope, the polytene chromosomes from the Drosophila melanogaster salivary gland were stained with the compound.
In brief, dissected salivary glands from third larvae of Drosophila melanogaster were fixed with a solution containing a 1:2:3 ratio of propionic acid, deionized water, and acetic acid on a positively charged coverslip. Then, the cells were located between a slide glass and the coverslip and then the individual cells were gently spread. After moving the coverslip back and forth on the slide glass, the spread cells were squashed for up to 15 minutes. Then, the slide glass and coverslip were slightly dipped into liquid nitrogen. Just after no more bubbles were generated, the cover slip was removed from the slide glass.

[3] = test system: λ DNA genome
Excerpt: Python Program • ImageCompare.py: a library of functions, • seq2map.py: to convert a FASTA file into a A/T frequency in silico map wherein a selected sequence is represented in white for high frequency regions and in black for low frequency regions. • insilicoMapFolder.py: to scan and compare in silico image files and DNA images obtained through experiments with respect to all images in the folder, to search positions of sites having the highest cross-correlation coefficient, to convert the values, and to store the values in new record files. • sortView.py: to read record files obtained with the insilicoMapFolder.py, to compare signals, to search cross-correlation coefficients, and to visualize image comparison in a new window. • randomtiff.py: to generate random intensity tiff images
Cross-correlation (cc) coefficient values calculated by comparing the alignment of 20 molecular images of above three kinds of binding sequences (W, W4 and W9) with the genome. The control cross-correlation coefficient (hereinafter referred to as cc) was obtained by comparing the 100 computer-generated random sequences with the in silico images (***P<0.0001 for random-sequences paired t-test).

Compound | staining / visualization of λ DNA molecules [1] | staining of polytene chromosomal DNA [2] | cross-correlation coefficient (cc) of 20 molecular images aligned with λ DNA genome ([3]; W, W4, W9 maps, Python program, FIG. 3b) | agreement of measured fluorescence intensity with in silico binding sequence profiles (W, W4, W9) ([3]; λ genome, FIG. 3a) | fluorescent λ DNA image quality compared with DAPI ([1]; λ DNA images, FIG. 5b)
CN(C)CCCNC(=O)c1cc(NC(=O)c2cc(NC(=O)c3cc(NC(=O)c4cc(NC(=O)CCNC(=O)CCNC(=O)c5ccc(C(=O)[O-])c(-c6c7ccc(=[N+](C)C)cc-7oc7cc(N(C)C)ccc67)c5)cn4C)cn3C)cn2C)cn1C [Comparative Example 1, (5-carboxytetramethylrhodamine)-(β-alanine)2-(N-methylpyrrole)4-(3-(dimethylamino)propylamine), reference compound] | stained only in part AT-rich regions and bound undesired regions |  |  |  | 
CN(C)CCCNC(=O)c1cc(NC(=O)c2cc(NC(=O)c3cc(NC(=O)c4cc(NC(=O)CCNC(=O)c5cc(NC(=O)c6cc(NC(=O)c7cc(NC(=O)c8cc(NC(=O)CCNC(=O)CCNC(=O)c9ccc(-c%10c%11ccc(=[N+](C)C)cc-%11oc%11cc(N(C)C)ccc%10%11)c(C(=O)[O-])c9)cn8C)cn7C)cn6C)cn5C)cn4C)cn3C)cn2C)cn1C [Preparation Example, (5-carboxytetramethylrhodamine)-(β-alanine)2-(N-methylpyrrole)4-(β-alanine)-(N-methylpyrrole)4-(3-(dimethylamino)propylamine)] | visualized λ DNA molecules with sequence specificity as well as enhancing the intensity of the molecules | clearly demonstrate band and interband patterns | highest cc value for simple A/T frequency | agrees better with simple A/T frequency than W4 and W9 | exhibits a clear backbone compared with DAPI-stained DNA
(5-carboxytetramethylrhodamine)-(β-alanine)2-(N-methylpyrrole)4-(5-carboxytetramethylrhodamine) [Comparative Example 2, reference compound] | did not bind double-stranded DNA at all |  |  |  | 

— patent US11306074B2, “Chemical and method for analyzing DNA sequence by visualizing single-molecule DNA and use thereof” (SOGANG UNIVERSITY RESEARCH FOUNDATION, priority 2018, dated 2022)
